The record followed here is patent publication US20260152533A1, “COMBINATION INHIBITORS FOR TREATING FIBROSIS” (Memorial Sloan-Kettering Cancer Center, priority 2021, published 2026).

Holding throughout (format): cell-based, mouse
For assay [1], the system named is mammary fibroblasts (MFBs). Kind of assay: Western blot of MFBs. The note with it: TGFβ. The text has this:
(§1) NIH-3T3 cells were obtained from ATCC (CRL-1658); 293 T cells were obtained from ATCC (CRL-3216). PSCs were isolated from C57BL/6 mice by differential centrifugation as previously described^49 and their mesenchymal origin was validated by analyzing the expression of various mesenchymal and epithelial markers. MFBs were isolated from FVB/N mice by differential centrifugation as previously described^50. DB7 mouse breast cancer cells were obtained from Alexander Borowsky (University of California Davis Comprehensive Cancer Center, Sacramento, CA, USA) through an MTA to Ohio State University (OSU). KPC (Kras^LSL-G12D; Trp53^LSL-R172H; Pdx1-Cre) mouse PDAC cells were a gift from Scott Lowe (Memorial Sloan Kettering Cancer Center. (MSKCC)). […]
Lysates were generated by incubating cells or ground tumors in RIPA buffer (Millipore); […] of cleared lysate were analyzed by SDS-polyacrylamide gel electrophoresis (SDS-PAGE) as previously described^11. […] Quantification of band intensities of collagen I relative to […] or vinculin in tumor allograft experiments was performed with Image Lab software v6.0 (Bio-Rad).
(In general: A western blot detects proteins with antibodies after separation by electrophoresis.)

The test system of assay [2] is pancreatic stellate cells (PSCs). In words: Growth experiments, PSCs. To be noted: 20% Gln, TGFβ.
Excerpt: as §1
A total of 0.2×10^5 cells/well were plated in 24-well culture plates and media was changed and treatments started 5-6 hours later. Cell numbers at the start of treatment (day 0 “d 0”) and 1, 2 and 3 days later were counted using the Multisizer 4e (Beckman) and normalized to the cell number at d 0. In co-culture assays, a fraction of the cell population was analyzed by flow cytometry for GFP expression, and the rest counted with the Multisizer 4e. The number of KPC-GFP cells was determined by multiplying the fraction of GFP+ cells with the total number of cells.

The test system is the same in assay [3]. Kind of assay: Collagen abundance in ECM derived from confluent PSCs. To be noted: Gln 20% or lower, TGFβ (FIG. 8C). How it is done:
(§2) Culture plates were coated with 0.1% gelatin (Sigma) and treated with 1% glutaraldehyde (Sigma) and 1 M ethanolamine (Sigma). Confluent NIH-3T3 cells, MFBs or PSCs were grown for 6 days on coated plates in the presence of […] sodium ascorbate (Sigma) and treated as indicated, and the medium was replaced every other day. Plates were decellularized with 20 mM ammonium hydroxide/0.5% Triton-X 100 for 5 min on a rotating platform. Three times the volume of PBS was added, and ECM was equilibrated overnight at 4° C., followed by four additional PBS washes. For western blot, preheated sample buffer supplemented with 1 mM dithiothreitol (DTT) was added, ECM was scraped off and boiled, and proteins were separated by SDS-PAGE followed by immunoblotting. To measure collagen abundance, fibroblast-derived ECM was stained with the Picro Sirius Red Stain Kit (Abcam) according to the manufacturer's instructions. The stain was extracted with 0.1 M sodium hydroxide (NaOH) and optical density was measured at 550 nm using a microplate reader. Differences in cell number were controlled for by growing cells on separate plates under the same experimental conditions.

Assay [4] relates to mammary fibroblasts (MFBs). Kind of assay: Collagen abundance in ECM derived from confluent MFBs. The note with it: Gln 20% or lower, TGFβ (FIG. 8F). How it is done: as §2

Regarding “TGFβ: transforming growth-factor beta; TGFβ-1 purchased from Peprotech”, in assay [1] (20% Gln, 48 hours), the “collagen I production” value is “unable to proliferate and produce collagen I”. Besides, the GCN2 phosphorylation result in assay [1] (low Gln (20%), 48 hours (FIG. 8K)) was “showed GCN2 phosphorylation”. Moreover, the cell proliferation result in assay [2] is on record as “unable to proliferate”. For the same substance, the “collagen accumulation in the ECM” value in assay [3] and in assay [4] was “could no longer stimulate” each time.
